{"source": "patent US20150157588A1", "about": "“Pharmaceutical Composition Comprising Amino-Phenyl-Acetic Acid Octadec-(Z)-9-enyl Ester and Use Thereof for Treating Tumors” (Yeda Research and Development Co., Ltd., priority 2012, published 2015)", "key": {"[1]": {"test_system": "p53 expressing L-12 mouse B cell line", "assay": "Apoptosis by hypo-diploid nuclei PI staining, transformed B cell line", "type": "cell-based", "conditions": "10 or 100 μg per ml in 5% ethanol solution, 48 h", "description": "Apoptosis was measured by FACS analysis with a hypo-diploid nuclei propidium iodide (PI) staining of an amino-phenyl-acetic acid octadec-(Z)-9-enyl ester treated p53 expressing L-12 mouse B cell line. FIGS. 4A-4C: L-12 cells treated with 0, 10 or 100 μg/ml of amino-phenyl-acetic acid octadec-(Z)-9-enyl ester in ethanol solution, respectively; FIGS. 4D-4F: L-12 cells treated with 0, 10 or 100 μg/ml of the control reagent 4-methyl-piperazino-acetic acid ethyl ester in ethanol solution, respectively; and FIGS. 4G-4I: L-12 cells treated with an ethanol volume corresponding to 0, 10 or 100 μg/ml of amino-phenyl-acetic acid octadec-(Z)-9-enyl ester, respectively. FL2-A is the measure of fluorescence. […]\n(§1) B or T-cell apoptosis was detected by flow cytometry. […] The cells were then subjected to flow cytometric analysis; for each sample 10,000 were collected and cell-cycle distribution was analyzed according to relative DNA content (PI staining). […] The cells were then collected, stained by APO-DIRECT TUNNEL kit (Phnxflow, CITY, Calif., USA); mitochondrial potential was measured by DePsipher (R&D Systems, Minneapolis, Minn.) according to the manufacturer's procedure. Intracellular caspase activity was measured by Apostat kit (R&D Systems), according to the manufacturer's procedure. The cells were analyzed by Flow cytometry using FACSort (Becton Dickinson) and CellQuest software (Becton Dickinson). […]"}, "[2]": {"test_system": "freshly isolated mouse B cells", "assay": "Spontaneous apoptosis by hypo-diploid nuclei PI staining, primary B cells", "type": "cell-based", "conditions": "1 or 100 μg/ml in ethanol solution", "description": "Apoptosis was measured by FACS analysis with a hypo-diploid nuclei propidium iodide (PI) staining of freshly isolated mouse B cells treated with amino-phenyl-acetic acid octadec-(Z)-9-enyl ester in ethanol solution. FIGS. 5A-5C: L-12 cells treated with 0, 1 or 100 μg/ml of amino-phenyl-acetic acid octadec-(Z)-9-enyl ester, respectively; FIGS. 5D-5F: L-12 cells treated with 0, 1 or 100 μg/ml of the control reagent 4-methyl-piperazino-acetic acid ethyl ester, respectively; and FIGS. 5G-5I: L-12 cells treated with an ethanol volume corresponding to 0, 1 or to 100 μg/ml of amino-phenyl-acetic acid octadec-(Z)-9-enyl ester in ethanol solution, respectively.\nas §1"}}}
{"smiles": "CCOC(=O)CN1CCN(C)CC1", "note": "[4-methyl-piperazino-acetic acid ethyl ester, reference compound]", "values": [{"measurement": "apoptosis / cell cycle (cells in sub-GO state)", "setting": "[1]", "value": "had no effect"}, {"measurement": "spontaneous apoptosis / cell-cycle of primary B cells", "setting": "[2]", "value": "had no effect"}]}
